In BindingDB's records for doi:10.1016/S1074-5521(01)00067-9 (University of California San Francisco, 2001) one finds IC50 data, which are given here for six compounds.

What all share (test): Inhibition Assay
The target of assay [1] is T1, Thymidylate synthase (Lacticaseibacillus casei, UniProt P00469).
T1 sequence (P00469 whole entry): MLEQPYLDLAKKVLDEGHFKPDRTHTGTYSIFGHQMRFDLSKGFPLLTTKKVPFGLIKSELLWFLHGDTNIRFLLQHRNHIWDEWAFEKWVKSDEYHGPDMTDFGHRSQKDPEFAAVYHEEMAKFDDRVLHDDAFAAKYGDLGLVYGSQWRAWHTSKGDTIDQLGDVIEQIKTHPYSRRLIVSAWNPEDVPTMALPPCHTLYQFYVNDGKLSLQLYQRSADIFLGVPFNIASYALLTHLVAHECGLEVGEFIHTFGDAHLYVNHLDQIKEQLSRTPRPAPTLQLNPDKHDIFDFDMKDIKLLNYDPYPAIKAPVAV
An excerpt: (§1) Affinity assay of specificities of thymidylate synthase (TS)inhibitors

Assay [2] concerns the target Thymidylate synthase (Escherichia coli (strain K12), UniProt P0A884).
Source text: as §1

Assay [3] deals with Thymidylate synthase (Homo sapiens, UniProt P04818).
Chain of Thymidylate synthase (Homo sapiens, UniProt P04818) (P04818 whole entry): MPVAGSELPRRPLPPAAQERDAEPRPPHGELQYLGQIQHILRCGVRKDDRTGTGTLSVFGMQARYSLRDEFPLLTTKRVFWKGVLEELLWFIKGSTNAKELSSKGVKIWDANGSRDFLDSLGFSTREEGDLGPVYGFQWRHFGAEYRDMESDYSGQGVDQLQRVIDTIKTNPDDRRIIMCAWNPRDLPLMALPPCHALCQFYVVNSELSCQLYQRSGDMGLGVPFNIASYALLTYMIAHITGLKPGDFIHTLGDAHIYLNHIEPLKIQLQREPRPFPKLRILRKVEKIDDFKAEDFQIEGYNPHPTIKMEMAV
Source text: as §1

pIC50: −log10 of the molar value.

Chain of Thymidylate synthase (Escherichia coli (strain K12), UniProt P0A884) (P0A884 whole entry): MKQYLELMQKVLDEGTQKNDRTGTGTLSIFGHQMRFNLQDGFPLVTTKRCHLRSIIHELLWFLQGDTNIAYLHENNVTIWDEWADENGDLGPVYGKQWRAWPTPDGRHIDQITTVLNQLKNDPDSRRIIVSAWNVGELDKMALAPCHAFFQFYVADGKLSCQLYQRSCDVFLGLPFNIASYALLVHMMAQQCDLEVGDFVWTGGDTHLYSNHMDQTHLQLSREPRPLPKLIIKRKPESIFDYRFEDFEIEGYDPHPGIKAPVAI

In turn, `CCCCN(CCCC)c1cccc2c(S(=O)(=O)Oc3ccc(CC(N)C(=O)O)cc3)cccc12` (centres undefined) gave a negative-log IC50 (pIC50) on Thymidylate synthase [1] of 4.28.
As to `NC(Cc1ccc(OC(=O)c2ccc3ccccc3c2)cc1)C(=O)O` (centres undefined) [2-naphthylcarbonyl], the pIC50 at Thymidylate synthase [1] was 4.15.
At Thymidylate synthase [1], `NC(Cc1ccc(OS(=O)(=O)c2ccc3ccccc3c2)cc1)C(=O)O` (centres undefined) [2-naphthylsulfonyl] gave a pIC50 of 5.33.
Turning to `CN(C)c1ccc(/N=N\c2ccc(S(=O)(=O)Oc3ccc(CC(N)C(=O)O)cc3)cc2)cc1` (centres undefined) [4'-(dimethylamino)azobenzene-4-sulfonyl], the pIC50 at Thymidylate synthase [1] is below 4.00.
For `CN(C)c1cccc2c(S(=O)(=O)NN)cccc12` [5-(dimethylamino)naphthalene-1-sulfonohydrazide], the negative-log IC50 (pIC50) against Thymidylate synthase [2] was 2.95; against Thymidylate synthase [3], 4.44; against Thymidylate synthase [1] it was 3.34.
Regarding `CN(C)c1cccc2c(S(=O)(=O)Oc3ccc(CC(N)C(=O)O)cc3)cccc12` [Dansyl derivatives 1A, (S) isomer], the pIC50 on Thymidylate synthase [2] is 2.93; against Thymidylate synthase [3] it was 3.11.

What is called pIC50 is the negative decadic logarithm of the IC50, by convention in mol/L. A high value points to a small IC50.
